In patent EP4737442A1, “DIAMINOVINYLIDENE DERIVATIVE OR SALT THEREOF, PEST CONTROL AGENT CONTAINING SAID COMPOUND, AND METHODS FOR USING THESE” (ADEKA CORPORATION, priority 2023, dated 2025) one finds inhibition and mortality data, which are given here for 24 compounds.

One experiment concerns Dirofilaria immitis. The experiment is described as follows: Effect test on Dirofilaria immitis (larval motility inhibition). The following applies: 168 h, read-out: motility inhibition rate.
Another experiment deals with Plutella xylostella. The experiment is described as follows: Insecticidal test against Plutella xylostella. The following applies: in Brassica rapa, 144 h, read-out: corrected mortality (%), assessment.
A further experiment has as its system Laodelphax striatellus. The experiment is described as follows: Insecticidal test against Laodelphax striatellus. The following applies: in Oryza sativa, 192 h, read-out: corrected mortality (%), assessment.
Experiment [1] has as its system Frankliniella occidentalis. Put plainly: Insecticidal test against Frankliniella occidentalis. The following applies: in Phaseolus vulgaris, 96 h, read-out: corrected mortality (%), assessment.
Description: Female adults of Frankliniella occidentalis were inoculated onto Phaseolus vulgaris leaf pieces, and after allowing them to lay eggs for one day, the female adults were removed. […] Four days after the treatment, the number of surviving larvae of this species larvae was examined.

SMILES strings stand for the structures. Bounds are passed on as bounds.

Description for Plutella xylostella: Six days after the immersion in the drug solution, the number of surviving insects was examined.

On to `Cn1nc(C2CC(=O)C(=C(Nc3ccc(F)cc3)Nc3ccc(F)nc3)C(=O)N2)cc1OC(F)F` (stereo not drawn) [3-22], for which the inhibition at 100 µM in the experiment with Dirofilaria immitis is ≥ 50%. In addition, in the experiment on Plutella xylostella, the mortality at 500 µg/mL amounted to 100%. For the same compound, the mortality at 500 ppm in the experiment on Laodelphax striatellus was determined as 100%.
For the compound `CSC(Nc1ccc(F)nc1)=C1C(=O)CC(c2cc(OC(F)F)n(C)n2)NC1=O` (stereo not drawn) [9-35], the inhibition at 100 µM in the experiment with Dirofilaria immitis is ≥ 50%. The mortality at 500 µg/mL (with Plutella xylostella; in experiment [1]) was 100% throughout. For the same compound, in the experiment on Laodelphax striatellus, the mortality at 500 ppm was 100%.
As for `CNC(Nc1ccc(F)c(F)c1)=C1C(=O)CN(c2ccc(Br)nc2)N(C(=O)OC)C1=O` [6-22], the inhibition at 100 µM with Dirofilaria immitis was ≥ 50%. The mortality at 500 ppm with Laodelphax striatellus was found to be 100%.
In the case of `CC(C)(C)OC(=O)N1CC(=O)C(=C(Nc2ccc(F)cn2)Nc2ccc(F)cn2)C(=O)C1` [compound No. 4-10, tertiary butyl 4-(bis((5-fluoropyridin-2-yl)amino)methylene)-3,5-dioxopiperidine-1-carboxylate], the mortality at 500 ppm in the experiment with Laodelphax striatellus turned out to be 100%.
For the compound `COC(=O)N1C(=O)C(=C(Nc2ccc(F)cc2)Nc2ccc(F)cc2)C(=O)CN1c1ccc(C#N)nc1` [6-4], in the experiment on Dirofilaria immitis, the inhibition at 100 µM was ≥ 50%. The mortality at 500 ppm in the experiment with Laodelphax striatellus came to 100%. Also, the mortality at 500 µg/mL in experiment [1] was determined as 100%.
On to `CNC(Nc1ccc(F)cc1)=C1C(=O)CN(c2cnc(C#N)c(Br)c2)N(C(=O)OC)C1=O` [6-20], for which, in the experiment on Dirofilaria immitis, the inhibition at 100 µM is ≥ 50%. Moreover, in the experiment with Laodelphax striatellus, the mortality at 500 ppm amounted to 100%. The mortality at 500 µg/mL in experiment [1] came to 100%.
As to `NC(Nc1ccc(F)cc1)=C1C(=O)CC(c2cnc(Cl)c(Br)c2)NC1=O` (stereo not drawn) [3-42], the inhibition at 100 µM with Dirofilaria immitis was ≥ 50%. Further, the mortality at 500 µg/mL in the experiment with Plutella xylostella is 100%. In the experiment on Laodelphax striatellus, the mortality at 500 ppm amounted to 100%.
For the compound `NC(Nc1ccc(F)cc1)=C1C(=O)CCCN(c2ccc(C(F)(F)F)cc2)C1=O` [compound No. 5-1, 3-(amino((4-fluorophenyl)amino)methylene)-1-(4-(trifluoromethyl)phenyl)azepane-2,4-dione], the mortality at 500 ppm with Laodelphax striatellus was found to be 100%.
For the compound `O=C1CC(c2nc(-c3ccc(F)cc3)cs2)NC(=O)C1=C(Nc1ccc(F)cc1)Nc1ccc(F)nc1` (stereo not drawn) [3-24], in the experiment on Dirofilaria immitis, the inhibition at 100 µM is ≥ 50%. For the same compound, the mortality at 500 µg/mL in the experiment with Plutella xylostella worked out at 100%.
In the case of `CNC(Nc1ccc(F)cc1)=C1C(=O)CN(c2ccc(C#N)nc2)N(Cc2cnc(Cl)s2)C1=O` [6-38], in the experiment with Dirofilaria immitis, the inhibition at 100 µM was ≥ 50%. The mortality at 500 µg/mL in experiment [1] came out at 100%.
As to `O=C1CC(c2ccc(C(F)(F)F)cc2)CC(=O)C1=C(NCC(F)(F)F)NCC(F)(F)F` (stereo not drawn) [1-28], in the experiment with Dirofilaria immitis, the inhibition at 100 µM was ≥ 50%. Further, the mortality at 500 µg/mL in the experiment on Plutella xylostella amounted to 100%.
Regarding `CC(C)(C)c1ccc(CSC(Nc2ccc(F)nc2)=C2C(=O)CC(c3cnc(Cl)c(Br)c3)NC2=O)cc1` (stereo not drawn) [9-32], the inhibition at 100 µM in the experiment with Dirofilaria immitis was ≥ 50%. The mortality at 500 µg/mL in the experiment with Plutella xylostella amounted to 100%. For the same compound, the mortality at 500 ppm with Laodelphax striatellus amounted to 100%.
`COC(=O)N1C(=O)C(=C(NCC(F)F)Nc2ccc(F)cc2)C(=O)CN1c1ccc(C#N)nc1` [compound No. 6-15, methyl 2-(6-cyanopyridin-3-yl)-5-(((2,2-difluoroethyl)amino) ((4-fluorophenyl)amino)methylene)-4,6-dioxotetrahydropyridazine-1(2H)-carboxylate]: the inhibition at 100 µM with Dirofilaria immitis was ≥ 50%. Also, in the experiment with Laodelphax striatellus, the mortality at 500 ppm turned out to be 100%.
`CSC(Nc1ccc(F)nc1)=C1C(=O)CC(c2ccc(C(F)(F)F)cc2)CC1=O` (stereo not drawn) [compound No. 9-1]: the inhibition at 100 µM in the experiment with Dirofilaria immitis was ≥ 50%. In addition, in the experiment with Plutella xylostella, the mortality at 500 µg/mL is 100%.
`CSC(Nc1ccc(F)nc1)=C1C(=O)CC(c2nc(-c3ccc(F)cc3)cs2)NC1=O` (stereo not drawn) [9-36]: the inhibition at 100 µM in the experiment on Dirofilaria immitis is ≥ 50%. Further, the mortality at 500 µg/mL (in the experiment on Plutella xylostella; in experiment [1]) was 100% throughout. Also, the mortality at 500 ppm with Laodelphax striatellus turned out to be 100%.
For the compound `CCOC(=O)N1C(=O)C(=C(NC)Nc2cccc(F)c2)C(=O)CN1c1ccc(C#N)c(Cl)c1` [6-30], in the experiment on Dirofilaria immitis, the inhibition at 100 µM is ≥ 50%. In experiment [1], the mortality at 500 µg/mL turned out to be 100%.
As for `CNC(Nc1ccc(F)nc1)=C1C(=O)CC(c2ccc(C(F)(F)F)cc2)NC1=O` (stereo not drawn) [3-11], in the experiment on Dirofilaria immitis, the inhibition at 100 µM is ≥ 50%. Also, the mortality at 500 µg/mL in the experiment with Plutella xylostella was found to be 100%. Moreover, the mortality at 500 ppm with Laodelphax striatellus is 100%.
Turning to `CC(C)(C)ONC(Nc1ccc(F)cc1)=C1C(=O)CC(c2ccc(C(F)(F)F)cc2)CC1=O` (stereo not drawn) [1-38], the inhibition at 100 µM in the experiment with Dirofilaria immitis is ≥ 50%. Besides, in the experiment with Plutella xylostella, the mortality at 500 µg/mL is 100%.
As for `C=CCNC(Nc1ccc(F)cc1)=C1C(=O)CC(c2cnc(C)o2)CC1=O` (stereo not drawn) [1-115], the inhibition at 100 µM in the experiment on Dirofilaria immitis is ≥ 50%. In the experiment with Plutella xylostella, the mortality at 500 µg/mL came to 100%.
Regarding `CNC(Nc1ccc(F)cc1)=C1C(=O)CN(c2cnc(C#N)c(Br)c2)N(C)C1=O` [6-47], the inhibition at 100 µM in the experiment with Dirofilaria immitis is ≥ 50%. The mortality at 500 ppm with Laodelphax striatellus came to 100%. The mortality at 500 µg/mL in experiment [1] was determined as 100%.
Consider `CNC(Nc1ccc(F)cc1)=C1C(=O)CN(c2ccc(C#N)cn2)CC1=O` [compound No. 4-1], for which the inhibition at 100 µM in the experiment on Dirofilaria immitis is ≥ 50%. Besides, the mortality at 500 µg/mL with Plutella xylostella amounted to 100%.
Regarding `COCCOC(=O)N1C(=O)C(=C(Nc2cccc(F)c2)Nc2cccc(F)c2)C(=O)CN1c1ccc(C#N)nc1` [6-6], in the experiment on Dirofilaria immitis, the inhibition at 100 µM was ≥ 50%. The mortality at 500 µg/mL (in the experiment on Plutella xylostella; in experiment [1]) was 100% each time. The mortality at 500 ppm in the experiment on Laodelphax striatellus was determined as 100%.
As to `COCCOC(=O)N1C(=O)C(=C(Nc2ccc(OC)cc2)Nc2ccc(OC)cc2)C(=O)CN1c1ccc(C#N)nc1` [6-7], in the experiment on Dirofilaria immitis, the inhibition at 100 µM is ≥ 50%. Also, the mortality at 500 ppm with Laodelphax striatellus stood at 100%.
Take `CNC(Nc1ccc(F)nc1)=C1C(=O)CC(c2nc(-c3ccc(F)cc3)cs2)NC1=O` (stereo not drawn) [3-23]: in the experiment with Dirofilaria immitis, the inhibition at 100 µM was ≥ 50%. Also, the mortality at 500 µg/mL with Plutella xylostella was 100%. For the same compound, the mortality at 500 ppm in the experiment with Laodelphax striatellus was 100%.
